Laboratory results reported in ChEMBL document CHEMBL1139524, “Decoys for docking” (J Med Chem, 2005).

What follows are molecules tested against Endolysin (Enterobacteria phage T4, UniProt P00720, L99A/M102Q) (assay: Dissociation constant against T4 lysozyme mutant L99A/M102Q).
Set-up: species or system Tequatrovirus T4
Work on `Nc1ccccc1F` yielded a Kd of 100 µM. For `Oc1cccc(Cl)c1`, the Kd was 56 µM. `Cc1cc[nH]c1` was tested, and the Kd was 159 µM.

These molecules were tested against T1, Beta-lactamase (Escherichia coli K-12, UniProt P00811) (assay: Inhibitory constant against beta-lactamase AmpC from Escherichia coli).
T1 sequence (P00811 whole entry): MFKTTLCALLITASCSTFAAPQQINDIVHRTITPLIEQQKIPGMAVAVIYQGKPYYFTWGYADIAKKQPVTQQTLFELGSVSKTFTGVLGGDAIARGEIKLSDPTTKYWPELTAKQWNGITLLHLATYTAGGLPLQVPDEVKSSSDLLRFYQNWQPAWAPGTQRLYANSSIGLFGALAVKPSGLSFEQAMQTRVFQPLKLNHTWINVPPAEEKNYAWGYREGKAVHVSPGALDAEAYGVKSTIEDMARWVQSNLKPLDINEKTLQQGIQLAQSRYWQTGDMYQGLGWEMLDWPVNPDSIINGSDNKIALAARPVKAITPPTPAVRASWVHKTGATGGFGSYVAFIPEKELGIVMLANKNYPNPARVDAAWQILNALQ
Work on `O=C(O)c1sccc1S(=O)(=O)Nc1ccc(Cl)cc1` yielded a Ki of 26 µM.

What follows are molecules tested against T1, Beta-lactamase (assay: Apparent inhibitory constant against beta-lactamase AmpC from Escherichia coli).
For `NS(=O)(=O)c1ccc(NS(=O)(=O)c2ccsc2C(=O)O)cc1`, the Ki was 93 µM.

These molecules were tested against Endolysin (Enterobacteria phage T4, UniProt P00720, L99A).
Set-up: species or system Tequatrovirus T4
Molecule `CCc1ccc(C)cc1` has a Kd of 120 µM. `CCCc1ccccc1` gave a Kd of 18 µM. For `CCc1cccc(C)c1`, the Kd was 198 µM. `CCc1ccccc1C` gave a Kd of 505 µM. `c1ccc2occc2c1` [BENZOFURAN] was tested, and the Kd was 112 µM. `c1ccc2sccc2c1` [BENZOTHIOPHENE] showed a Kd of 74 µM. `C1=Cc2ccccc2C1` [INDENE] was tested, and the Kd was 193 µM. `Cc1cccc(C)c1` [M-XYLENE] showed a Kd of 364 µM.
